Test results from ChEMBL document CHEMBL5725391, “1,3-diaminocyclopentane carboxamide derivatives” (2017).

Biological target: Fatty acid synthase (Homo sapiens, UniProt P49327)
Test: Biochemical Assay of FASN: The biochemical FASN activity testing was performed as 384 well two-time-point kinetic fluorescence intensity assay format in Greiner low volume medium binding 384-well black microtiter plates in a total assay volume of 8 μl and was used for high throughput screen. In each well 3 μl 40 nM human recombinant full-length fatty acid synthase (produced in-house in SF9 cells) were dispensed in the following assay buffer: 50 mM potassium phosphate buffer pH 7.0, 0.005% (w/v) BSA, 2 mM Glutathione, 0.02% Tween-20. Then 2 μl of 200 μM NADPH in assay buffer were added, followed by the addition of the test compounds in 10 dilution concentrations starting with 30 μM (final concentration) to get a final DMSO content of 1% (v/v). The mixture was incubated for at least 15 min at room temperature. After the pre-incubation the enzymatic reaction was started by the addition of 2 μl substrate solution (80 μM acetyl-CoA, 240 μM malonyl-CoA). A first fluorescence intensity measurement (time point one) was performed with an Envision multimode reader (Perkin Elmer LAS Germany GmbH) at excitation wavelength 340 nm (lamp mode) and emission wavelength 460 nm. The reaction was incubated for 30 minutes at room temperature. After this the fluorescence intensity was measured again in the Envision using the same parameters as described above (second time point measurement). The data were analysed by subtracting the first time point measurement value from the second time point measurement value (after the enzymatic reaction). The differences of the emission signals were determined. These reflect directly the conversion rate of NADPH. The full value used was the inhibitor-free reaction. A pharmacological zero value was used like GSK837149A (Sigma-Aldrich) in a final concentration of 5-10 μM. The inhibitory values (IC50) were determined using either the program Symyx Assay Explorer® or Condosseo® from GeneData.

Chain of Fatty acid synthase (P49327 whole entry): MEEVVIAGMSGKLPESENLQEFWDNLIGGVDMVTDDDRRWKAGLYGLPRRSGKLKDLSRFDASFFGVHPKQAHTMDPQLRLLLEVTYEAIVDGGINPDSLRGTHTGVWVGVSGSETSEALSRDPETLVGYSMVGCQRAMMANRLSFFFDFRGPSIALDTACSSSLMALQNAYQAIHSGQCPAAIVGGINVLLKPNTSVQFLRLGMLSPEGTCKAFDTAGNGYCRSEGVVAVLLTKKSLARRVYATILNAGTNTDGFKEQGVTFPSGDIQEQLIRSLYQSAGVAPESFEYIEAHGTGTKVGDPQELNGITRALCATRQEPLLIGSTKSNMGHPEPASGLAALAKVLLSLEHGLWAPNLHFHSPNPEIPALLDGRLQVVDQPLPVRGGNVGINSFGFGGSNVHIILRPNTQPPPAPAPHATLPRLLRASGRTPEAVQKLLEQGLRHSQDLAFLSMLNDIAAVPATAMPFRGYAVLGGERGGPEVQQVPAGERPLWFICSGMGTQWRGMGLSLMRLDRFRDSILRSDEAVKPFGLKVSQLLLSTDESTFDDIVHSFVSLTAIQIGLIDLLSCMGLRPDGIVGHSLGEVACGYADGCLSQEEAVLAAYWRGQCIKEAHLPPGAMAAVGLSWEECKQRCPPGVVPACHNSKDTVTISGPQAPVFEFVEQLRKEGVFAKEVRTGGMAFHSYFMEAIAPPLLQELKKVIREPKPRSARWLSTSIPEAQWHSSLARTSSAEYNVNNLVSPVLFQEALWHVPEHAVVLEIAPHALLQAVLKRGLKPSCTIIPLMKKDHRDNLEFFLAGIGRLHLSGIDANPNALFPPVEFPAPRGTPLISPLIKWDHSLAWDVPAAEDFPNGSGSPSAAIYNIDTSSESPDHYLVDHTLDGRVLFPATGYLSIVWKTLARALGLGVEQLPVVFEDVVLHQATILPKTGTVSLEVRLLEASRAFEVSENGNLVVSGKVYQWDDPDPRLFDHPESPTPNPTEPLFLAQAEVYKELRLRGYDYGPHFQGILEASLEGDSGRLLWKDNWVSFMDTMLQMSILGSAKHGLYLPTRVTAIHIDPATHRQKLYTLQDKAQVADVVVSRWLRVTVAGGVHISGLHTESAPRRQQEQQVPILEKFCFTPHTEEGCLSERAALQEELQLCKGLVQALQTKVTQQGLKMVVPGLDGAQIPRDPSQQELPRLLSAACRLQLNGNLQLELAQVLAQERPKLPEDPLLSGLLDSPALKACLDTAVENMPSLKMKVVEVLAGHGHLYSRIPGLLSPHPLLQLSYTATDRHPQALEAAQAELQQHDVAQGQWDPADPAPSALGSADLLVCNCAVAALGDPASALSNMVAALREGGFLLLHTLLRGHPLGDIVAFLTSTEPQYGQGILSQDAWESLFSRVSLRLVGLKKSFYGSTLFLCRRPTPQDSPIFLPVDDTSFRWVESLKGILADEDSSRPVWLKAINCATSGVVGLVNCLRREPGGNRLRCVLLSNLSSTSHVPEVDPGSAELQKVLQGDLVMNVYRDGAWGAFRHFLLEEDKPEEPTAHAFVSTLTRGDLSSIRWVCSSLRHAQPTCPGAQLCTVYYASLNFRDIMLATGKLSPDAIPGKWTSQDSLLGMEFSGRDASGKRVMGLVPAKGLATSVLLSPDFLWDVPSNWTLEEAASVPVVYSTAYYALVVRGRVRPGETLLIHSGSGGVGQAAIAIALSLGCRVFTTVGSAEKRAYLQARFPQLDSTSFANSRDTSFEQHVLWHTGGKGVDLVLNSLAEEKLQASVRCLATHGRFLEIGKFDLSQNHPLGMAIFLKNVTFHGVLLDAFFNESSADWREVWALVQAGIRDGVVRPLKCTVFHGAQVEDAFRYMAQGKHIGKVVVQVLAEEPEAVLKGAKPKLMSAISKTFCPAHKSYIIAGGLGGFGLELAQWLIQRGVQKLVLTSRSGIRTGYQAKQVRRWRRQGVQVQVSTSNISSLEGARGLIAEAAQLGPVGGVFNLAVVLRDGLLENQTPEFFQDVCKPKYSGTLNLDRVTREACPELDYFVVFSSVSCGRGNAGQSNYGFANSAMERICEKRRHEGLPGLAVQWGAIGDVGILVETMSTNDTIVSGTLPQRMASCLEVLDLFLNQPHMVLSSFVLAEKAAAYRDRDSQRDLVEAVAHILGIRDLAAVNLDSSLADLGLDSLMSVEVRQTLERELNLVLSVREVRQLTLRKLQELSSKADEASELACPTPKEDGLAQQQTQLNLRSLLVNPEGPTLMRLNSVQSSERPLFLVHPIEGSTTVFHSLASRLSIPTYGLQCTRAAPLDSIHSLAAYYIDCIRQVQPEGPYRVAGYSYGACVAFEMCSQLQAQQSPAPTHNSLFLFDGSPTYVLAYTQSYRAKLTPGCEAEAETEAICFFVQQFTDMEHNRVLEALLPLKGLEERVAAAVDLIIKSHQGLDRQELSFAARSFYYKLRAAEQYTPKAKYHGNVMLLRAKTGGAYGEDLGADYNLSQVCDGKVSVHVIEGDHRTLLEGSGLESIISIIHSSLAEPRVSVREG

IC50	Structure (SMILES)
< 300 nM	CN(C(=O)c1ccc(-c2nc3ccccc3o2)cc1F)[C@@H]1CC[C@H](NC(=O)[C@@H]2CCCO2)C1
< 300 nM	CCC(=O)N[C@H]1CC[C@@H](N(C)C(=O)c2ccc(-c3cccc4[nH]ncc34)cc2)C1
< 300 nM	CCC(=O)N[C@H]1CC[C@@H](N(C)C(=O)c2ccc(-c3ccc(C#N)cc3F)cc2)C1
< 300 nM	CCC(=O)N[C@H]1CC[C@@H](N(C)C(=O)c2ccc(-c3cc(F)c4[nH]cc(C(N)=O)c4c3)cc2)C1
< 300 nM	CCC(=O)N[C@H]1CC[C@@H](N(C)C(=O)c2cnc(-c3ccc4[nH]ccc4c3)s2)C1
< 300 nM	CCC(=O)N[C@H]1CC[C@@H](N(C)C(=O)c2sc(-c3ccc4[nH]ccc4c3)nc2C)C1
< 300 nM	CCC(=O)N[C@H]1CC[C@@H](N(C)C(=O)c2ccc(-c3ccc4[nH]cc(F)c4c3)nc2)C1
